Experimental findings from patent US9193733B2, “Piperidinylcyclobutyl substituted pyrrolopyridine and pyrrolopyrimidine derivatives as JAK inhibitors” (Incyte Corporation, priority 2012, dated 2015) are described below.

Where only a bound is given, the exact number is not on record here.

Common to all, as to assay type: biochemical
Assay [1] addresses T1, human JAK1 (a.a. 837-1142) catalytic domain (Homo sapiens, UniProt P23458).
T1 construct: human JAK1 (a.a. 837-1142) and JAK2 (a.a. 828-1132); His tag (N); made in house; host or cells: insect cells (baculovirus)
The experiment in a line: In vitro JAK kinase assay (HTRF, phosphorylation of a biotinylated peptide), JAK1. Conditions: 1 mM ATP. The method, then:
(§1) Compounds herein were tested for inhibitory activity of JAK targets according to the following in vitro assay described in Park et al., Analytical Biochemistry 1999, 269, 94-104. The catalytic domains of human JAK1 (a.a. 837-1142) and JAK2 (a.a. 828-1132) with an N-terminal His tag were expressed using baculovirus in insect cells and purified. The catalytic activity of JAK1 and JAK2 was assayed by measuring the phosphorylation of a biotinylated peptide. The phosphorylated peptide was detected by homogenous time resolved fluorescence (HTRF). IC50s of compounds were measured for each kinase in the 40 microL reactions that contain the enzyme, ATP and 500 nM peptide in 50 mM Tris (pH 7.8) buffer with 100 mM NaCl, 5 mM DTT, and 0.1 mg/mL (0.01%) BSA. For the 1 mM IC50 measurements, ATP concentration in the reactions was 1 mM. Reactions were carried out at room temperature for 1 hour and then stopped with 20 μL 45 mM EDTA, 300 nM SA-APC, 6 nM Eu-Py20 in assay buffer (Perkin Elmer, Boston, Mass.). Binding to the Europium labeled antibody took place for 40 minutes and HTRF signal was measured on a Fusion plate reader (Perkin Elmer, Boston, Mass.). See Table A for data related to compounds of the Examples (at 1 mM). Data is indicated as ranges: <20 nM (+), 20 to <150 nM (++), 150 to 500 nM (+++).

For assay [2], the system named is human JAK1 (a.a. 837-1142) catalytic domain. Described as above. Conditions: ratio of JAK2 IC50 to JAK1 IC50, 1 mM ATP. As to the method:
as §1

For assay [3], the target named is T2, human JAK2 (a.a. 828-1132) catalytic domain (Homo sapiens, UniProt O60674).
T2 construct: human JAK1 (a.a. 837-1142) and JAK2 (a.a. 828-1132); His tag (N); made in house; host or cells: insect cells (baculovirus)
The assay can be described thus: In vitro JAK kinase assay (HTRF, phosphorylation of a biotinylated peptide), JAK2. Conditions: 1 mM ATP. As to the method: as §1
A general note: In TR-FRET formats the signal depends on donor and acceptor labels being close together.

T2 sequence (O60674 828-1132): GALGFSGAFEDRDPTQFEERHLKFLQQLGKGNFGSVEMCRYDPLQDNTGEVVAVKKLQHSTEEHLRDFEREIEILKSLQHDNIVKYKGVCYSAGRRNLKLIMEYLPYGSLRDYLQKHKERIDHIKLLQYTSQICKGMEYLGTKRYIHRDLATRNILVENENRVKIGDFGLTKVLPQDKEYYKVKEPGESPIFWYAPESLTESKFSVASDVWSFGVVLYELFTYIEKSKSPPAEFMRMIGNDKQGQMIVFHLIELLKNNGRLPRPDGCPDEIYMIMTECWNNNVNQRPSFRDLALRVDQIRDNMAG
T1 sequence (P23458 849-1154): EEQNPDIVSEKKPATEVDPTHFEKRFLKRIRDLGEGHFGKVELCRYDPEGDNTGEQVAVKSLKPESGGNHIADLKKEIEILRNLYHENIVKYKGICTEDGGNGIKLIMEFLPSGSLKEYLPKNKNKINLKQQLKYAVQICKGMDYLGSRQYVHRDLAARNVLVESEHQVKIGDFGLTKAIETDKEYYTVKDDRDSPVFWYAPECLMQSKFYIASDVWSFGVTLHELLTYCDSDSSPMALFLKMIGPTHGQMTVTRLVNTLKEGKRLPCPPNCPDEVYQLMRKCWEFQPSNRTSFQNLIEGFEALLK

Take `N#CC[C@]1(n2cc(-c3ncnc4[nH]ccc34)cn2)C[C@H](N2CCC(Oc3cc(Cn4cncn4)cc(C(F)(F)F)n3)CC2)C1` [Example 23, [trans-1-[4-(7H-pyrrolo[2,3-d]pyrimidin-4-yl)-1H-pyrazol-1-yl]-3-(4-{[4-(1H-1,2,4-triazol-1-ylmethyl)-6-(trifluoromethyl)pyridin-2-yl]oxy}piperidin-1-yl)cyclobutyl]acetonitrile]: the IC50 in assay [1] was < 20 nM; in assay [3], 20 to 150 nM. Moreover, in assay [2], the JAK2/JAK1 is reported as >10.
The matching figures for `N#CC[C@]1(n2cc(-c3ncnc4[nH]ccc34)cn2)C[C@H](N2CCC(Nc3cc(CN[C@H]4C[C@H](O)C4)cc(C(F)(F)F)n3)CC2)C1` [Example 34, {trans-3-(4-{[4-{[(trans-3-hydroxycyclobutyl)amino]methyl}-6-(trifluoromethyl)pyridin-2-yl]amino}piperidin-1-yl)-1-[4-(7H-pyrrolo[2,3-d]pyrimidin-4-yl)-1H-pyrazol-1-yl]cyclobutyl}acetonitrile]: < 20 nM, 20 to 150 nM and >10.
Turning to `N#CC[C@]1(n2cc(-c3ncnc4[nH]ccc34)cn2)C[C@H](N2CCC(Nc3cc(CN[C@H]4C[C@H](O)C4)nc(C(F)(F)F)n3)CC2)C1` [Example 30, {trans-3-(4-{[6-{[(trans-3-hydroxycyclobutyl)amino]methyl}-2-(trifluoromethyl)pyrimidin-4-yl]amino}piperidin-1-yl)-1-[4-(7H-pyrrolo[2,3-d]pyrimidin-4-yl)-1H-pyrazol-1-yl]cyclobutyl}acetonitrile], the figures for the IC50 in assay [1] and in assay [3] were < 20 nM and 20 to 150 nM, respectively. The JAK2/JAK1 in assay [2] is >10.
As to `N#CC[C@]1(n2cc(-c3ncnc4[nH]ccc34)cn2)C[C@H](N2CCC(Nc3cc(CNCCO)nc(C(F)(F)F)n3)CC2)C1` [Example 29, {trans-3-(4-{[6-{[(2-hydroxyethyl)amino]methyl}-2-(trifluoromethyl)pyrimidin-4-yl]amino}piperidin-1-yl)-1-[4-(7H-pyrrolo[2,3-d]pyrimidin-4-yl)-1H-pyrazol-1-yl]cyclobutyl}acetonitrile], the figures for the concentration for half-maximal inhibition (IC50) in assay [1] and in assay [3] were < 20 nM and 20 to 150 nM, respectively. Besides, the JAK2/JAK1 in assay [2] is >10.
Regarding `CN(CCO)Cc1cc(OC2CCN([C@H]3C[C@](CC#N)(n4cc(-c5ncnc6[nH]ccc56)cn4)C3)CC2)nc(C(F)(F)F)c1` [Example 17, {trans-3-(4-{[4-{[(2-hydroxyethyl)(methyl)amino]methyl}-6-(trifluoromethyl)pyridin-2-yl]oxy}piperidin-1-yl)-1-[4-(7H-pyrrolo[2,3-d]pyrimidin-4-yl)-1H-pyrazol-1-yl]cyclobutyl}acetonitrile], the IC50 was < 20 nM in assay [1] and 20 to 150 nM in assay [3]. In addition, in assay [2], the JAK2/JAK1 was >10.
The matching figures for `N#CC[C@]1(n2cc(-c3ccnc4[nH]ccc34)cn2)C[C@H](N2CCC(Oc3cc(CNCCO)cc(C(F)(F)F)n3)CC2)C1` [Example 21, {trans-3-(4-{[4-{[(2-hydroxyethyl)amino]methyl}-6-(trifluoromethyl)pyridin-2-yl]oxy}piperidin-1-yl)-1-[4-(1H-pyrrolo[2,3-b]pyridin-4-yl)-1H-pyrazol-1-yl]cyclobutyl}acetonitrile]: < 20 nM, 150 to 500 nM and >10.
The like results for `N#CC[C@]1(n2cc(-c3ncnc4[nH]ccc34)cn2)C[C@H](N2CCC(Oc3cc(CN[C@H]4C[C@H](O)C4)cc(C(F)(F)F)n3)CC2)C1` [Example 12, {trans-3-(4-{[4-{[(trans-3-hydroxycyclobutyl)amino]methyl}-6-(trifluoromethyl)pyridin-2-yl]oxy}piperidin-1-yl)-1-[4-(7H-pyrrolo[2,3-d]pyrimidin-4-yl)-1H-pyrazol-1-yl]cyclobutyl}acetonitrile] were, in that order, < 20 nM, 20 to 150 nM and >10.
As to `N#CC[C@]1(n2cc(-c3ncnc4[nH]ccc34)cn2)C[C@H](N2CCC(Nc3cc(CO)nc(C(F)(F)F)n3)CC2)C1` [Example 27, {trans-3-(4-{[6-(hydroxymethyl)-2-(trifluoromethyl)pyrimidin-4-yl]amino}piperidin-1-yl)-1-[4-(7H-pyrrolo[2,3-d]pyrimidin-4-yl)-1H-pyrazol-1-yl]cyclobutyl}acetonitrile], the concentration for half-maximal inhibition (IC50) in assay [1] was < 20 nM; in assay [3], 20 to 150 nM. The JAK2/JAK1 in assay [2] is given as >10.
The like results for `CN(c1cc(CO)cc(C(F)(F)F)n1)C1CCN([C@H]2C[C@](CC#N)(n3cc(-c4ncnc5[nH]ccc45)cn3)C2)CC1` [Example 47, {trans-3-{4-[[4-(hydroxymethyl)-6-(trifluoromethyl)pyridin-2-yl](methyl)amino]piperidin-1-yl}-1-[4-(7H-pyrrolo[2,3-d]pyrimidin-4-yl)-1H-pyrazol-1-yl]cyclobutyl}acetonitrile] were, in that order, < 20 nM, 150 to 500 nM and >10.
The matching figures for `N#CC[C@]1(n2cc(-c3ncnc4[nH]ccc34)cn2)C[C@H](N2CCC(Oc3cc(C4(N)COC4)cc(C(F)(F)F)n3)CC2)C1` [Example 50, {trans-3-(4-{[4-(3-aminooxetan-3-yl)-6-(trifluoromethyl)pyridin-2-yl]oxy}piperidin-1-yl)-1-[4-(7H-pyrrolo[2,3-d]pyrimidin-4-yl)-1H-pyrazol-1-yl]cyclobutyl}acetonitrile]: < 20 nM, 20 to 150 nM and >10.
The like results for `N#CC[C@]1(n2cc(-c3ncnc4[nH]ccc34)cn2)C[C@H](N2CCC(Nc3cc(CO)cc(C(F)(F)F)n3)CC2)C1` [Example 31, {trans-3-(4-{[4-(hydroxymethyl)-6-(trifluoromethyl)pyridin-2-yl]amino}piperidin-1-yl)-1-[4-(7H-pyrrolo[2,3-d]pyrimidin-4-yl)-1H-pyrazol-1-yl]cyclobutyl}acetonitrile] were, in that order, < 20 nM, 20 to 150 nM and >10.
As to `C[C@H](CO)NCc1cc(OC2CCN([C@H]3C[C@](CC#N)(n4cc(-c5ncnc6[nH]ccc56)cn4)C3)CC2)nc(C(F)(F)F)c1` [Example 2, {trans-3-(4-{[4-({[(1R)-2-hydroxy-1-methylethyl]amino}methyl)-6-(trifluoromethyl)pyridin-2-yl]oxy}piperidin-1-yl)-1-[4-(7H-pyrrolo[2,3-d]pyrimidin-4-yl)-1H-pyrazol-1-yl]cyclobutyl}acetonitrile], the IC50 was < 20 nM in assay [1] and 20 to 150 nM in assay [3]. Besides, in assay [2], the JAK2/JAK1 was >10.
For the compound `CCNCc1cc(N(C)C2CCN([C@H]3C[C@](CC#N)(n4cc(-c5ncnc6[nH]ccc56)cn4)C3)CC2)nc(C(F)(F)F)c1` [Example 48, {trans-3-{4-[[4-[(ethylamino)methyl]-6-(trifluoromethyl)pyridin-2-yl](methyl)amino]piperidin-1-yl}-1-[4-(7H-pyrrolo[2,3-d]pyrimidin-4-yl)-1H-pyrazol-1-yl]cyclobutyl}acetonitrile], the figures for the IC50 in assay [1] and in assay [3] were < 20 nM and 20 to 150 nM, respectively. Besides, the JAK2/JAK1 in assay [2] is >10.
`N#CC[C@]1(n2cc(-c3ncnc4[nH]ccc34)cn2)C[C@H](N2CCC(Nc3cc(CN4CC(O)C4)cc(C(F)(F)F)n3)CC2)C1` [Example 41, {trans-3-(4-{[4-[(3-hydroxyazetidin-1-yl)methyl]-6-(trifluoromethyl)pyridin-2-yl]amino}piperidin-1-yl)-1-[4-(7H-pyrrolo[2,3-d]pyrimidin-4-yl)-1H-pyrazol-1-yl]cyclobutyl}acetonitrile]: the results for the concentration for half-maximal inhibition (IC50) in assay [1] and in assay [3] were < 20 nM and 20 to 150 nM, respectively. Moreover, in assay [2], the JAK2/JAK1 is reported as >10.
The matching figures for `N#CC[C@]1(n2cc(-c3ncnc4[nH]ccc34)cn2)C[C@H](N2CCC(Nc3cc(CN4CC5(COC5)C4)cc(C(F)(F)F)n3)CC2)C1` [Example 46, {trans-3-(4-{[4-(2-oxa-6-azaspiro[3.3]hept-6-ylmethyl)-6-(trifluoromethyl)pyridin-2-yl]amino}piperidin-1-yl)-1-[4-(7H-pyrrolo[2,3-d]pyrimidin-4-yl)-1H-pyrazol-1-yl]cyclobutyl}acetonitrile]: < 20 nM, 20 to 150 nM and >10.
The like results for `N#CC[C@]1(n2cc(-c3ncnc4[nH]ccc34)cn2)C[C@H](N2CCC(Nc3cc(CNCCO)cc(C(F)(F)F)n3)CC2)C1` [Example 33, {trans-3-(4-{[4-{[(2-hydroxyethyl)amino]methyl}-6-(trifluoromethyl)pyridin-2-yl]amino}piperidin-1-yl)-1-[4-(7H-pyrrolo[2,3-d]pyrimidin-4-yl)-1H-pyrazol-1-yl]cyclobutyl}acetonitrile] were, in that order, < 20 nM, 20 to 150 nM and >10.

For orientation: IC50 means the concentration that gives 50% inhibition.
